Measured values: article PMC11313072, “Copper(II) and Zinc(II) Complexes with Bacterial Prodigiosin Are Targeting Site III of Bovine Serum Albumin and Acting as DNA Minor Groove Binders” (International Journal of Molecular Sciences, 2024)

Target: T1, bovine serum albumin (BSA) (Bos taurus, UniProt P02769)
T1 construct: gene ALB; commercial native full-length BSA (Sigma-Aldrich), mature secreted protein
Experiment: tryptophan fluorescence quenching
Type: binding
Details: PBS pH 7.4, BSA 5 μM, excitation 280 nm, no site marker, double-log
Description: tryptophan fluorescence quenching on bovine serum albumin (BSA)

T1 sequence (P02769 25-607): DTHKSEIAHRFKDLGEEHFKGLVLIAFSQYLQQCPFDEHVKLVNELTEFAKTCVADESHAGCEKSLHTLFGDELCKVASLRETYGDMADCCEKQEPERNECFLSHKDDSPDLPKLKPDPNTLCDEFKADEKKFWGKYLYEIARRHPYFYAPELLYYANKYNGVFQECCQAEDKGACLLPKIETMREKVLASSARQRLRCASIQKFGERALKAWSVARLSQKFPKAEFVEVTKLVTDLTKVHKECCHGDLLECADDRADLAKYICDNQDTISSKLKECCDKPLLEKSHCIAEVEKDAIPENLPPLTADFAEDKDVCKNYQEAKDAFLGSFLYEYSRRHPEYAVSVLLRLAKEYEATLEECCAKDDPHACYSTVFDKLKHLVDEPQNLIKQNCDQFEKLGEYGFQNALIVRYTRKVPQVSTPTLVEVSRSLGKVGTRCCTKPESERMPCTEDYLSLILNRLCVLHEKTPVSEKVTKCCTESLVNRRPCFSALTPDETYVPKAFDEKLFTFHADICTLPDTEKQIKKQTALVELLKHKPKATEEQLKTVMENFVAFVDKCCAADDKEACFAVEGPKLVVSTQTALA

`CCCCCC1=C/C(=C/c2[nH]c(-c3ccc[nH]3)cc2OC)N=C1C` [PG, prodigiosin] was tested, and the “KA” value (n = 0.97) was 5770 M⁻¹.

With CuPG the “KA” value (n = 1.41) was 805000 M⁻¹.

For ZnPG, the “KA” value (n = 1.07) was 7140 M⁻¹.
